Assay results taken from patent US20100204295A1, “TREATMENT OF ALLERGIC DISEASE WITH IMMUNOMODULATOR COMPOUNDS” (SCICLONE PHARMACEUTICALS, INC., priority 2007, published 2010).

Legend:
anti-OvA IgE = assay: Titer of anti-OvA IgE in serum and BAL by solid phase IFA, ovalbumin asthma model; assay type: in vivo, mice of the Balb/C line; settings: for Titer IgE BAL, dilution 1:8, % of average of the control group / Titer IgE of serum, dilution 1:640, % of average of the control group: animals 6 to 8 weeks; for Titer IgE BAL, dilution 1:32, % of average of the control group / Titer IgE of serum, dilution 1:400, % of average of the control group: animals 18 to 20 weeks
Source text: Female, non-pathogenic mice of the Balb/C line (“Pushchtino” laboratory animal breeders) were kept under conditions of an SPF-vivarium at a constant temperature, 12-hour day/night cycle, and received sterile feed and water ad libitum. In two series of experiments, mice from 6-8 weeks and 18-20 weeks of age were used at the beginning of the experiment, respectively.
The animals were immunized twice at 5-day intervals with an ovalbumin solution (Sigma) in an adjuvant based on ammonium sulfate at a dosage of 8 μg per mouse. SCV-07 was administered intra-abdominally in a volume of 200 μL at a dosage of 0.1 or 1.0 μg/kg in PBS once a day from 6 through 11 days after the first immunization. The control group received physiological saline on the same days. Each group comprised 6 to 10 animals. On the 12th, 16th and 20th days after the first immunization, the animals were then placed in a hermetic box, in which an aerosol of 1% ovalbumin solution (OvA) in PBS was generated with an ultrasonic nebulizer LD-207U (Little Doctor) for 1 minute with continuous mixing of air. The duration of exposure of the animals to the aerosol was 15 minutes. Analysis of the severity of experimental allergic asthma was carried out 24 hours after the last aerosol exposure.
The peripheral blood was collected from the retro-orbital sinus. The titer of anti-OvA IgE in the serum and bronchoalveolar lavage was determined with solid phase IFA according to the following scheme. Rat antibodies to murine IgE labeled with biotin (Caltag) were introduced to a 96-well plate for IFA ((Corning Costar) in the dilution recommended by the manufacturer (100 μL/well), incubated for an hour at room temperature and washed. Serum samples or BAL were then introduced in successive dilutions and incubated at room temperature for an hour and washed. OvA was then added, labeled with horseradish peroxidase, incubated on a shaker for an hour at room temperature, washed and the substrate for peroxidase introduced (OPD, Sigma) and incubated for 15 minutes. The reaction was stopped by adding 1 M H2SO4 and the plates were analyzed on a Victor2 spectrophotometer (Wallac) at a wavelength of 450 nm. For quantitative comparison of the titers of the antigen-specific IgE after subtracting the background, we calculated the average optical density in each dilution for samples of the animal control group, and expressed the optical densities in the samples from all animals in the experiment in corresponding dilution as the percentages of the values obtained.

[1] = tested on: eosinophils and neutrophils in the lung tissue; assay: Lung tissue eosinophil peroxidase (EPO) and myeloperoxidase (MPO), guinea pig model; assay type: in vivo, Dunkin-Hartley guinea pigs
Procedure: Animals were sensitized on day 0 ip with 50 mg/kg OVA. On Days 17, 18, 19, and 20, animals received an ip injection between 8 and 10 am with PBS, SCV-07 at 1 ug/kg, or SCV-07 at 10 ug/kg (Peptide treatment). Between 8 and 10 a.m. on Day 21, animals were administered peptide 2 hours before OVA or saline (NSS) aerosol challenge. 30 min before OVA or NSS aerosol challenge each animal was injected ip with an antihistamine (6.1 mg/kg pyrilamine maleate) to prevent death due to the anaphylactic response that accompanies aerosol OVA challenge. Animals were exposed to aerosol in pairs with either 1% OVA solution or NSS for 5 min in a plexiglass chamber (22×22×29 cm) using a DeVilbiss Model 35B Ultrasonic Nebulizer. Animals were observed during the total 5 min aerosolization and comments recorded. Within 22-24 hours after challenge, animals were euthanized, bled by cardiac puncture, lavaged and lung lobes removed for measurement of cellular infiltration. At the time of OVA or NSS challenge and euthanasia, animal weights ranged from approximately 350-550 g, with the average weight approximately 420 g. This experimental protocol is similar to that used in previously published studies (Regal and Fraser, 1996; Regal et al., 2000). Animals were euthanized with pentobarbital (100-200 mg/kg), bled by cardiac puncture, and lavaged with room temperature PBS. For bronchoalveolar lavage (BAL), the trachea was cannulated and 4 volumes of PBS were introduced into the tracheal cannula and gently withdrawn. Total lavage volume was 60 ml/kg. The BAL was centrifuged to sediment the cells, and the BAL cell pellet re-suspended in 1.0 ml PBS for determination of the total number of white blood cells (WBC) recovered in the BAL of each animal. The BAL supernatant was frozen at −70 C for determination of total protein recovered in the BAL supernatant using the method of Lowry et al. (1951). Total white blood cells in BAL were counted by standard methods in a hemacytometer using Turk's solution. Differential counts were obtained from cytospin preparations of BAL cells (3×10^4 cells) stained with a modified Wrights' stain (Diff Quik, American Scientific Products, McGraw Park, Ill.). Four hundred cells were counted and identified as eosinophils, neutrophils, or mononuclear cells. […] EPO activity from the homogenized lung after lavage was expressed as total OD/min from the left caudal lobe. MPO activity from the homogenized lung after lavage was expressed as total units of enzyme activity from the right caudal lobe. […] OD412 of the BAL supernatant was also determined to estimate the number of RBCS that were lysed during the lavage procedure and prior to re-suspension of the cells for counting. […]

N[C@H](CCC(=O)N[C@@H](Cc1c[nH]c2ccccc12)C(=O)O)C(=O)O [SCV-07, γ-D-glutamyl-L-tryptophan]
Titer IgE BAL, dilution 1:8, % of average of the control group (anti-OvA IgE; 0.1 μg/kg): 59 ± 33 % of average of the control group
Titer IgE of serum, dilution 1:640, % of average of the control group (anti-OvA IgE; 0.1 μg/kg): 86 ± 42 % of average of the control group
Titer IgE BAL, dilution 1:8, % of average of the control group (anti-OvA IgE; 1 μg/kg): 46 ± 24 % of average of the control group
Titer IgE of serum, dilution 1:640, % of average of the control group (anti-OvA IgE; 1 μg/kg): 65 ± 26 % of average of the control group
Titer IgE BAL, dilution 1:32, % of average of the control group (anti-OvA IgE; 0.1 μg/kg): 85 ± 70 % of average of the control group
Titer IgE of serum, dilution 1:400, % of average of the control group (anti-OvA IgE; 0.1 μg/kg): 92 ± 44 % of average of the control group
Titer IgE BAL, dilution 1:32, % of average of the control group (anti-OvA IgE; 1 μg/kg): 101 ± 51 % of average of the control group
Titer IgE of serum, dilution 1:400, % of average of the control group (anti-OvA IgE; 1 μg/kg): 79 ± 46 % of average of the control group
Lung MPO in animals challenged with NSS aerosol ([1]; 1 ug/kg, p<0.05 vs PBS NSS control): significantly reduced
Change in lung EPO from NSS to OVA vs PBS treatment ([1]; 10 ug/kg, ANOVA contrast): greater
Lung EPO in animals challenged with NSS aerosol ([1]; 10 ug/kg, p<0.05 vs PBS NSS control): significantly reduced
Change in lung MPO from NSS to OVA ([1]; ANOVA contrast vs PBS treatment): did not differ
